Experimental data as given in patent US20230058316A1, “PEGYLATED IGE-DEPENDENT HISTAMINE-RELEASING FACTOR (HRF)-BINDING PEPTIDE AND USE THEREOF” (EWHA UNIVERSITY - INDUSTRY COLLABORATION FOUNDATION, priority 2020, published 2023).
Where no end group is shown, it is not given here.

System: IL-5
Experiment: IL-5 secretion in bronchoalveolar lavage fluid, ovalbumin-induced bronchial asthma and rhinitis mouse model
Format: in vivo
Conditions: 1 mg/kg IP
Protocol: A bronchial asthma and rhinitis animal model was prepared by the following method. An ovalbumin solution was prepared by dissolving ovalbumin in an aluminum hydroxide solution (1 mg/ml) 28 and 14 days before the start of inducing bronchial asthma and rhinitis, and 200 μl of the solution was intraperitoneally injected into each mouse for sensitization. After 14 days of final sensitization, 20 μl of saline/PBS (normal control; NC) or 20 μl of 10 mg/mL ovalbumin solution (positive control; PC) was instilled into the nasal cavity of each lightly anesthetized mouse 4 times every other day for 8 days to induce bronchial asthma and rhinitis.
After the end of the experiment, the amount of IL-5 in the supernatant obtained by centrifuging bronchoalveolar lavage fluid was measured and quantified by enzyme immunosorbent detection using mouse IL-5 ELISA kit (Biolegend, USA).
Next, in order to confirm whether there is an effect of inhibiting IL-5 secretion even when administered in a small number of times, the dTBP2 of Preparative Example 4 and Example 3 was administered to the mouse model of Example 4-1 through intraperitoneal injection once in 4 days for a total of 2 times for 8 days inducing bronchial asthma and rhinitis. The amount of IL-5 was measured and quantified by the enzyme immunosorbent detection method in the same manner.
In addition, the dTBP2 of Preparative Example 4 and Example 3 was administered to the mouse model of Example 4-1 through intraperitoneal injection once on the 1st day of 8 days inducing bronchial asthma and rhinitis. The amount of IL-5 was measured and quantified by the enzyme immunosorbent detection method in the same manner.
The amount of IL-5 was measured and quantified by the enzyme immunosorbent detection method in the same manner.

Example 3: dTBP2 (WYVYPSM) conjugated at the N-terminal with methoxy polyethylene glycol propionaldehyde (10 kDa) ({mPEG propionaldehyde 10 kDa}-WYVYPSM)
reduction of IL-5 secretion (8 times daily for 8 days, FIG. 10): about 50%
inhibiting IL-5 secretion (once in 4 days for a total of 2 times (FIG. 11) and once on the 1st day (FIG. 12)): effective
IL-5 secretion inhibitory effect (once on the 5th day of 8 days, FIG. 13): effectively inhibited
